# Source: publication PMC12052742, “Engineering a newly identified alcohol dehydrogenase from Sphingobium Sp. for efficient utilization of nicotinamide cofactors biomimetics” (Bioresources and Bioprocessing, 2025)
# Assays:
# [1] = test system: SpADH2 variant H43L/A290I; test: Activity of variant in oxidation of syringyl alcohol with p-BANA^+ (Fig. 5), H43L/A290I; format: biochemical, Sphingobium sp. SYK-6; settings: cofactor p-BANA^+
# Protocol: (§1) In the first round of screening, saturation mutagenesis was constructed for six positions (W114, T177, G172, G316, A47, and R227). […] Therefore, in the second round of mutagenesis, six additional sites within the 5 Å range of the cofactor ribose (H43, V202, T265, V288, G289, and A290) were selected for saturation mutagenesis screening (Fig. 6c and Fig. S6). Three beneficial mutations were identified. […] Subsequently, combinatorial mutagenesis was performed, resulting in 11 double variants and 3 triple variants.
# (§2) Fig. 5 Relative activity of SpADH2 and its variants in oxidation of syringyl alcohol when utilizing p-BANA^+ as cofactor
# (§3) In preliminary screening by spectrophotometric analysis, PBS (pH 7.5) buffer (50 µL) in a 96-well plate was pre-warmed at 30°C for 15 min, and a final concentration of 5 mM p-BANA^+ and 1 mM substrate syringyl alcohol were added, and 50 µL of crude enzyme were add to each well to start the reaction, with WT as control. The reaction mixture was incubated at 30°C for 1 h, followed by addition of fluorescent probes in a final concentration of 0.2 mM, and was subjected to determination under 537 nm as described above.
# SpADH2 WT [2] = target: T1, SpADH2 WT (Sphingobium sp. SYK-6, UniProt G2IIZ8); test: Substrate kinetic assay, WT; format: biochemical
# Protocol: (§4) Specific activity of SpADH2 in substrate spectrum study was measured spectrophotometrically. PBS (pH 7.5) buffer was pre-heated at 30°C for 15 min. For NAD^+, 0.05 µg SpADH2 was added to the PBS buffer (100 µL), and a final concentration of 2 mM NAD^+ was added. For tsNCBs cofactor p-BANA^+, 5 µg SpADH2 and a final concentration of 7.5 mM p-BANA^+ was added. The mixture was carried out in a 96-well microplate, and a final concentration of 5 mM substrate was added to start the reaction. The microplate was incubated in 30°C for 1 h. Florescent probes (2-[2-(1,4-dihydro-1-methyl-3-quinolinyl)ethenyl]-1,3,3-trimethyl-3H-indolium) in a final concentration of 0.2 mM (100 µL) was added (Scheme S1), and the microplate was placed in a microplate reader immediately for measurement under 537 nm (Fomin et al. [2016]).
# (§5) Kinetic analysis of SpADH2 and its variants were carried out following Michaelis-Menten equation or Michaelis-Menten excess substrate inhibition equation. For of the substrate kinetic assays, concentrations of cofactors were fixed at 5 mM for NAD^+ and 7.5 mM for p-BANA^+. For cofactor kinetic assays, the concentration of 1a was fixed at 5 mM.
# (§6) Specific activity was determined spectrophotometrically as above except that gradient 1a (0−20 mM) or cofactor (0−35 mM) concentrations were applied.
# (§7) Cofactor specificity ratio (CSR) represents the ratio of catalytic efficiency of p-BANA^+ to NAD^+ for each enzyme, and relative specificity (RS) stands for the CSR ratio of variants to WT (King et al. [2020]).
# SpADH2 variant A47L = test: Activity of variant in oxidation of syringyl alcohol with p-BANA^+ (Fig. 5), A47L; format: biochemical, Sphingobium sp. SYK-6; settings: cofactor p-BANA^+, substrate syringyl alcohol
# Protocol: as §1, §2, §3
# SpADH2 variant H43L [3] = test: Cofactor kinetic assay, H43L; format: biochemical, Sphingobium sp. SYK-6
# Protocol: as §4, §5, §6, §7
# SpADH2 variant A47G = test: Activity of variant in oxidation of syringyl alcohol with p-BANA^+ (Fig. 5), A47G; format: biochemical, Sphingobium sp. SYK-6; settings: cofactor p-BANA^+, substrate syringyl alcohol
# Protocol: as §1, §2, §3
# [4] = test system: SpADH2 variant H43L/A290I; test: Substrate kinetic assay, H43L/A290I; format: biochemical, Sphingobium sp. SYK-6
# Protocol: as §4, §5, §6, §7
# SpADH2 variant A290I = test: Cofactor kinetic assay, A290I; format: biochemical, Sphingobium sp. SYK-6
# Protocol: as §4, §5, §6, §7
# SpADH2 variant H43L [5] = test: Activity of variant in oxidation of syringyl alcohol with p-BANA^+ (Fig. 5), H43L; format: biochemical, Sphingobium sp. SYK-6; settings: cofactor p-BANA^+, substrate syringyl alcohol
# Protocol: as §1, §2, §3
# SpADH2 variant A47S = test: Activity of variant in oxidation of syringyl alcohol with p-BANA^+ (Fig. 5), A47S; format: biochemical, Sphingobium sp. SYK-6; settings: cofactor p-BANA^+, substrate syringyl alcohol
# Protocol: as §1, §2, §3
# SpADH2 = test: Cofactor spectrum of syringyl alcohol oxidation (HPLC specific activity), WT; format: biochemical, Sphingobium sp. SYK-6
# Protocol: Fig. 2 Cofactor spectrum of syringyl alcohol oxidation catalyzed by SpADH2. The darkness of the background color for each cofactor stands for the activity of SpADH2 utilizing various cofactors. (a) NAD(P) ^+ and NMN^+ are shown in purple background. (b) tsNCBs are shown in cyan background. The evaluation of cofactor spectrum of SpADH2 was carried out under following conditions: 50 mM PBS buffer (pH 7.5) and 30℃, with 1a (5 mM) as substrate and different cofactors (7.5 mM) as cofactor. For NAD(P)^+ and NMN^+, 0.05 µg SpADH2 was added, and for tsNCBs, 5 µg SpADH2 was added. The results were analyzed by HPLC after 1 h reaction
# Specific activity of SpADH2 in cofactor spectrum study was determined by HPLC analysis. PBS (pH 7.5) buffer was pre-heated at 30°C for 15 min. For NAD(P)^+ and NMN^+, 0.05 µg SpADH2 was added to PBS buffer (100 µL). For tsNCBs, 5 µg SpADH2 was added. A final concentration of 7.5 mM cofactor was added to the reaction mixture. Finally, a final concentration of 5 mM substrate was added to start the reaction. The reactions were conducted at 30°C.
# One unit of enzyme activity is defined as the amount of enzyme required to form 1 µmol 1b per minute at pH 7.5 and 30°C. Same reaction without cofactor was used as a blank control.
# SpADH2 WT [6] = target: T1, SpADH2 WT; test: Cofactor kinetic assay, WT; format: biochemical
# Protocol: as §4, §5, §6, §7
# [7] = 1a varied, cofactor (= label) fixed: 5 mM NAD^+ or 7.5 mM p-BANA^+
# [8] = cofactor (= label) varied, 1a fixed at 5 mM
# [9] = cofactor (= label) varied, 1a fixed at 5 mM, pH 7.5, 30°C
# [10] = cofactor (= label) varied, 1a fixed at 5 mM, read-out: Ki (cofactor inhibition)
# [11] = substrate kinetics, cofactor = label
# [12] = cofactor kinetics, cofactor = label
# T1 sequence (G2IIZ8 1-372): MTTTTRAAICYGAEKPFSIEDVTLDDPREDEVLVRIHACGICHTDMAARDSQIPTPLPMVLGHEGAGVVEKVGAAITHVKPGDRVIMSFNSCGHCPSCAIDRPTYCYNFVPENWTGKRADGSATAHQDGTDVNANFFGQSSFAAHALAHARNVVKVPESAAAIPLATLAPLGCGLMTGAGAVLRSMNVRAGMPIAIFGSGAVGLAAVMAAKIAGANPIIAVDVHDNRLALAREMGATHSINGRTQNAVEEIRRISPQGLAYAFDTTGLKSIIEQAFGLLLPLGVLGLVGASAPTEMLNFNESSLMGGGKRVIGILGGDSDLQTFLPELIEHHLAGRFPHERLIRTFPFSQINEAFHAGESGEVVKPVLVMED
structure (smiles),measurement,setting,value
"NC(=O)c1ccc[n+](Cc2ccc(C(=O)O)cc2)c1 [p-BANA^+, para-3-carbamoyl-1-(4-carboxybenzyl)pyridin-1-ium]",fold higher activity than WT,[1]; substrate syringyl alcohol,7 fold
same,activity,[1]; substrate syringyl alcohol (Fig. 5),70 U/g
same,kcat,SpADH2 WT [2]; [7],1.1 ± 0.3 min^− 1
same,Cofactor specificity ratio (catalytic efficiency of p-BANA^+ to NAD^+),SpADH2 WT [2]; substrate kinetics,1.52×10^-5
same,fold higher activity than WT,SpADH2 variant A47L,4.3 fold
same,kcat,SpADH2 variant H43L [3]; [8],5.1 ± 2.0 min^− 1
same,Km,SpADH2 variant H43L [3]; [9],28 ± 13 mM
same,Ki,SpADH2 variant H43L [3]; [10],5.4 ± 2.5 mM
same,Cofactor specificity ratio (catalytic efficiency of p-BANA^+ to NAD^+),SpADH2 variant H43L [3]; cofactor kinetics,3.08×10^-4
same,Relative specificity (CSR ratio of variant to WT),SpADH2 variant H43L [3]; cofactor kinetics,8.08
same,fold higher activity than WT,SpADH2 variant A47G,1.3 fold
same,kcat,[4]; [7],6.8 ± 1.6 min^− 1
same,Cofactor specificity ratio (catalytic efficiency of p-BANA^+ to NAD^+),[4]; substrate kinetics,0.1026
same,fold increase in kcat vs WT,[4]; [11],6 fold
same,reduce in Km value vs WT,[4]; [11],30%
same,Relative specificity (CSR ratio of variant to WT),"[4]; substrate kinetics, in text as fold improvement in CSR",6750
same,kcat,SpADH2 variant A290I; [8],13 ± 2.5 min^− 1
same,Km,SpADH2 variant A290I; [9],14 ± 3.8 mM
same,Ki,SpADH2 variant A290I; [10],18 ± 5.8 mM
same,Cofactor specificity ratio (catalytic efficiency of p-BANA^+ to NAD^+),SpADH2 variant A290I; cofactor kinetics,2.96×10^-4
same,Relative specificity (CSR ratio of variant to WT),SpADH2 variant A290I; cofactor kinetics,7.77
same,fold higher catalytic efficiency (kcat/Km) than WT,SpADH2 variant A290I; [12],10 fold
same,fold increase in kcat value vs WT,SpADH2 variant A290I; [12],7.9 fold
same,fold increase in activity vs WT,SpADH2 variant H43L [5],2 fold
same,fold higher activity than WT,SpADH2 variant A47S,1.8 fold
same,activity of SpADH2 with the tsNCB as cofactor,"SpADH2; 1a 5 mM, cofactor 7.5 mM, pH 7.5, 30℃, 5 µg SpADH2, 1 h",11.55 U/g
same,fold increasement of activity compared with preliminary assay,SpADH2; optimized conditions vs preliminary assay,7.1 fold
same,kcat,SpADH2 WT [6]; [8],1.6 ± 0.5 min^− 1
same,Ki,SpADH2 WT [6]; [10],12 ± 4.7 mM
same,Cofactor specificity ratio (catalytic efficiency of p-BANA^+ to NAD^+),SpADH2 WT [6]; cofactor kinetics,3.81×10^-5
